Assay results reported in patent US20240174643A1, “SOS1 PROTEIN DEGRADERS, PHARMACEUTICAL COMPOSITIONS THEREOF, AND THEIR THERAPEUTIC APPLICATIONS” (Bio TheryX, Inc., priority 2021, published 2024).

Columns and labels:
Format in all cases: cell-based
SW48 (wt) cells = test: Cell viability assay (CELLTITER-GLO), SW48 cells; settings: Homo sapiens, 72 h, 3 days at 37° C., CELLTITER-GLO luminescence, read-out: Inhibition of Cancerous Cells IC50 (μM) SW48 (wt)
Experimental: (§1) AsPC-1, 1358, and SW48 cells were cultured in RPMI 1640 media supplemented with 10% fetal bovine serum, streptomycin, and penicillin. Lovo and SW480 cells were cultured in DMEM media supplemented with 10% fetal bovine serum, streptomycin, and penicillin. The cell lines were plated in their respective medium supplemented with 2.5% fetal bovine serum, streptomycin, and penicillin. All cell lines were plated in white walled 96-well plates at 2,000 cells/well or 384-well plates at 500 cells/well, except Lovo, which were plated at 4,000 or 1,000 cells/well, respectively. The cells were incubated in DMSO (control) or a compound for 3 days at 37° C. under 5% CO2. A CELLTITER-GLO® reagent (100 μL) was then added to each well. After a 10 min incubation with shaking, luminescence was measured using an ENVISION® multimode plate reader.

AsPC-1 (G12D) cells = test: Cell viability assay (CELLTITER-GLO), AsPC-1 cells; settings: Homo sapiens, ASPC1, 72 h, 3 days at 37° C., CELLTITER-GLO luminescence, read-out: Inhibition of Cancerous Cells IC50 (μM) AsPC-1 (G12D)
Experimental: as §1

Lovo (G13D) cells = test: Cell viability assay (CELLTITER-GLO), Lovo cells; settings: Homo sapiens, 72 h, 3 days at 37° C., CELLTITER-GLO luminescence, read-out: Inhibition of Cancerous Cells IC50 (μM) Lovo (G13D)
Experimental: as §1

SW480 (G12V) cells = test: Cell viability assay (CELLTITER-GLO), SW480 cells; settings: Homo sapiens, 72 h, 3 days at 37° C., CELLTITER-GLO luminescence, read-out: Inhibition of Cancerous Cells IC50 (μM) SW480 (G12V)
Experimental: as §1

H358 (G12C) cells = test: Cell viability assay (CELLTITER-GLO), H358 cells; settings: Homo sapiens, NCI-H358, 72 h, 3 days at 37° C., CELLTITER-GLO luminescence, read-out: Inhibition of Cancerous Cells IC50 (μM) H358 (G12C)
Experimental: as §1

| SMILES | IC50 (SW48 (wt) cells) [µM] | IC50 (AsPC-1 (G12D) cells) [µM] | IC50 (Lovo (G13D) cells) [µM] | IC50 (SW480 (G12V) cells) [µM] | IC50 (H358 (G12C) cells) [µM] |
| --- | --- | --- | --- | --- | --- |
| COc1cc2c(N[C@H](C)c3cccc(Br)c3)nc(C)nc2cc1OCCCCCCCCCN1CCN(C(=O)CNc2ccc3c(N4CCC(=O)NC4=O)nn(C)c3c2)CC1 [Compound D8, (R)-1-(6-((2-(4-(9-((4-((1-(3-Bromophenyl)ethyl)amino)-6-methoxy-2-methyl-quinazolin-7-yl)oxy)nonyl)piperazin-1-yl)-2-oxoethyl)amino)-1-methyl-1H-indazol-3-yl)-dihydropyrimidine-2,4(1H,3H)-dione] | 0.4 | 1.7 | 1.2 | 0.35 | 6.1 |
| COc1cc2c(N[C@H](C)c3cccc(Br)c3)nc(C)nc2cc1OCCCCCCCCCCCN1CCN(C(=O)CNc2cccc3c(N4CCC(=O)NC4=O)nn(C)c23)CC1 [Compound D10, (R)-1-(7-((2-(4-(11-((4-((1-(3-Bromophenyl)ethyl)amino)-6-methoxy-2-methyl-quinazolin-7-yl)oxy)undecyl)piperazin-1-yl)-2-oxoethyl)amino)-1-methyl-1H-indazol-3-yl)-dihydropyrimidine-2,4(1H,3H)-dione] | > 10 | > 10 | 1.4 | 1.2 | > 10 |
| COc1cc2c(N[C@H](C)c3cccc(Br)c3)nc(C)nc2cc1OCCCCCCCCCN1CCN(C(=O)COc2cccc(N3CCC(=O)NC3=O)c2)CC1 [Compound C5, (R)-1-(3-(2-(4-(9-((4-((1-(3-Bromophenyl)ethyl)amino)-6-methoxy-2-methyl-quinazolin-7-yl)oxy)nonyl)piperazin-1-yl)-2-oxoethoxy)phenyl)dihydropyrimidine-2,4(1H,3H)-dione] | 2 | 1.5 | 0.63 | 0.57 | 1.9 |
| COc1cc2c(N[C@H](C)c3cccc(Br)c3)nc(C)nc2cc1OCCCCCCCCCCCN1CCN(C(=O)CNc2ccc3c(N4CCC(=O)NC4=O)nn(C)c3c2)CC1 [Compound D7, (R)-1-(6-((2-(4-(11-((4-((1-(3-Bromophenyl)ethyl)amino)-6-methoxy-2-methyl-quinazolin-7-yl)oxy)undecyl)piperazin-1-yl)-2-oxoethyl)amino)-1-methyl-1H-indazol-3-yl)-dihydropyrimidine-2,4(1H,3H)-dione] | 0.67 | 4.5 | 1.1 | 0.36 | > 10 |
| COc1cc2c(N[C@H](C)c3cccc(Br)c3)nc(C)nc2cc1OCCCCCCCN1CCN(C(=O)COc2cccc(N3CCC(=O)NC3=O)c2)CC1 [Compound C4, (R)-1-(3-(2-(4-(7-((4-((1-(3-Bromophenyl)ethyl)amino)-6-methoxy-2-methyl-quinazolin-7-yl)oxy)heptyl)piperazin-1-yl)-2-oxoethoxy)phenyl)dihydropyrimidine-2,4(1H,3H)-dione] | 1.3 | 1.4 | 0.94 | 0.73 | 1.2 |
| COc1cc2c(N[C@@H](C)c3cccc(Br)c3)nc(C)nc2cc1OCCCCCCCCCN1CCN(C(=O)CNc2cccc3c(N4CCC(=O)NC4=O)nn(C)c23)CC1 [Compound D9, (S)-1-(7-((2-(4-(9-((4-((1-(3-Bromophenyl)ethyl)amino)-6-methoxy-2-methyl-quinazolin-7-yl)oxy)nonyl)piperazin-1-yl)-2-oxoethyl)amino)-1-methyl-1H-indazol-3-yl)dihydropyrimidine-2,4(1H,3H)-dione] | 2.5 | 4.7 | 1.9 | 1.1 | 4.5 |
| COc1cc2c(N[C@H](C)c3cccc(Br)c3)nc(C)nc2cc1OCCCCCCCCCN1CCN(C(=O)COc2ccc(N3CCC(=O)NC3=O)cc2)CC1 [Compound C2, (R)-1-(4-(2-(4-(9-((4-((1-(3-Bromophenyl)ethyl)amino)-6-methoxy-2-methyl-quinazolin-7-yl)oxy)nonyl)piperazin-1-yl)-2-oxoethoxy)phenyl)dihydropyrimidine-2,4(1H,3H)-dione] | 1.6 | 1.6 | 0.55 | 0.66 | 1.4 |
| COc1cc2nc(C)nc(N[C@H](C)c3cccc(Br)c3)c2cc1OC [reference compound] | 3.6 | 5.1 | 2.5 | 3.4 | 3.2 |
| COc1cc2c(N[C@H](C)c3cccc(Br)c3)nc(C)nc2cc1OCCCCCCCCCCCN1CCN(C(=O)COc2ccc(N3CCC(=O)NC3=O)cc2)CC1 [Compound C3, (R)-1-(4-(2-(4-(11-((4-((1-(3-Bromophenyl)ethyl)amino)-6-methoxy-2-methyl-quinazolin-7-yl)oxy)undecyl)piperazin-1-yl)-2-oxoethoxy)phenyl)dihydropyrimidine-2,4(1H,3H)-dione] | 2.1 | 2.1 | 0.93 | 0.66 | 3.4 |
